What all share (type): functional
For assay [1], the system named is Bemisia tabaci. The assay can be described thus: Cross resistant, ratio of LC50 for B-biotype thiamethoxam-resistant Bemisia tabaci (sweet potato whitefly) to LC50 for B-biotype thiamethoxam-sensitive Bemisia tabaci (sweet potato whitefly).
Assay [2] has as its system Bemisia tabaci. The assay can be described thus: Insecticidal activity against B-biotype thiamethoxam-resistant Bemisia tabaci (sweet potato whitefly) in cabbage leaf assessed as mortality after 48 hr by leaf disk assay. The conditions noted are these: foliar.
The test system of assay [3] is Bemisia tabaci. The assay can be described thus: Insecticidal activity against B-biotype thiamethoxam-sensitive Bemisia tabaci (sweet potato whitefly) in cabbage leaf assessed as mortality after 48 hr by leaf disk assay. Conditions: foliar.
The test system of assay [4] is Bemisia tabaci. Kind of assay: Synergism ratio, Ratio of LC50 for B-biotype thiamethoxam-resistant Bemisia tabaci (sweet potato whitefly) to LC50 for B-biotype thiamethoxam-resistant Bemisia tabaci (sweet potato whitefly) in presence of diethylmaleate.
The test system of assay [5] is Bemisia tabaci. The assay can be described thus: Synergism ratio, Ratio of LC50 for B-biotype thiamethoxam-resistant Bemisia tabaci (sweet potato whitefly) to LC50 for B-biotype thiamethoxam-resistant Bemisia tabaci (sweet potato whitefly) in presence of triphenyl phosphate.
For assay [6], the system named is Bemisia tabaci. Kind of assay: Synergism ratio, Ratio of LC50 for B-biotype thiamethoxam-resistant Bemisia tabaci (sweet potato whitefly) to LC50 for B-biotype thiamethoxam-resistant Bemisia tabaci (sweet potato whitefly) in presence of piperonyl butoxide.
Assay [7] has as its system Bemisia tabaci. Kind of assay: Synergism ratio, Ratio of LC50 for B-biotype thiamethoxam-sensitive Bemisia tabaci (sweet potato whitefly) to LC50 for B-biotype thiamethoxam-sensitive Bemisia tabaci (sweet potato whitefly) in presence of diethylmaleate.
Assay [8] deals with Bemisia tabaci. Kind of assay: Synergism ratio, Ratio of LC50 for B-biotype thiamethoxam-sensitive Bemisia tabaci (sweet potato whitefly) to LC50 for B-biotype thiamethoxam-sensitive Bemisia tabaci (sweet potato whitefly) in presence of triphenyl phosphate.
The subject of assay [9] is Bemisia tabaci. The assay can be described thus: Synergism ratio, Ratio of LC50 for B-biotype thiamethoxam-sensitive Bemisia tabaci (sweet potato whitefly) to LC50 for B-biotype thiamethoxam-sensitive Bemisia tabaci (sweet potato whitefly) in presence of piperonyl butoxide.
Assay [10] deals with Bemisia tabaci. The assay can be described thus: Insecticidal activity against B-biotype thiamethoxam-resistant Bemisia tabaci (sweet potato whitefly) in cabbage leaf assessed as mortality after 48 hr by leaf disk assay in presence of diethylmaleate. Conditions: foliar.
Assay [11] concerns Bemisia tabaci. Kind of assay: Insecticidal activity against B-biotype thiamethoxam-resistant Bemisia tabaci (sweet potato whitefly) in cabbage leaf assessed as mortality after 48 hr by leaf disk assay in presence of triphenyl phosphate. The conditions noted are these: foliar.
The test system of assay [12] is Bemisia tabaci. The assay can be described thus: Insecticidal activity against B-biotype thiamethoxam-resistant Bemisia tabaci (sweet potato whitefly) in cabbage leaf assessed as mortality after 48 hr by leaf disk assay in presence of piperonyl butoxide. The conditions noted are these: foliar.
The test system of assay [13] is Bemisia tabaci. The assay can be described thus: Insecticidal activity against B-biotype thiamethoxam-sensitive Bemisia tabaci (sweet potato whitefly) in cabbage leaf assessed as mortality after 48 hr by leaf disk assay in presence of diethylmaleate. The conditions noted are these: foliar.
For assay [14], the system named is Bemisia tabaci. The assay can be described thus: Insecticidal activity against B-biotype thiamethoxam-sensitive Bemisia tabaci (sweet potato whitefly) in cabbage leaf assessed as mortality after 48 hr by leaf disk assay in presence of triphenyl phosphate. The conditions noted are these: foliar.
The subject of assay [15] is Bemisia tabaci. Kind of assay: Insecticidal activity against B-biotype thiamethoxam-sensitive Bemisia tabaci (sweet potato whitefly) in cabbage leaf assessed as mortality after 48 hr by leaf disk assay in presence of piperonyl butoxide. Conditions: foliar.
In assay [16] the test system is Bemisia tabaci. The assay can be described thus: Resistant ratio, ratio of LC50 for T33 generation of B-biotype Bemisia tabaci (sweet potato whitefly) to LC50 for B-biotype Bemisia tabaci (sweet potato whitefly).
Assay [17] has as its system Bemisia tabaci. Kind of assay: Resistant ratio, ratio of LC50 for T30 generation of B-biotype Bemisia tabaci (sweet potato whitefly) to LC50 for B-biotype Bemisia tabaci (sweet potato whitefly).
In assay [18] the test system is Bemisia tabaci. Kind of assay: Insecticidal activity against B-biotype Bemisia tabaci (sweet potato whitefly) in cabbage leaf assessed as mortality after 48 hr by leaf disk assay. Conditions: foliar.
Assay [19] concerns Bemisia tabaci. Kind of assay: Insecticidal activity against T17 generation of B-biotype Bemisia tabaci (sweet potato whitefly) in cabbage leaf assessed as mortality after 48 hr by leaf disk assay. The conditions noted are these: foliar.
Assay [20] concerns Bemisia tabaci. The assay can be described thus: Insecticidal activity against T28 generation of B-biotype Bemisia tabaci (sweet potato whitefly) in cabbage leaf assessed as mortality after 48 hr by leaf disk assay. Conditions: foliar.
Assay [21] deals with Bemisia tabaci. Kind of assay: Insecticidal activity against T30 generation of B-biotype Bemisia tabaci (sweet potato whitefly) in cabbage leaf assessed as mortality after 48 hr by leaf disk assay. The conditions noted are these: foliar.
Assay [22] relates to Bemisia tabaci. The assay can be described thus: Insecticidal activity against T33 generation of B-biotype Bemisia tabaci (sweet potato whitefly) in cabbage leaf assessed as mortality after 48 hr by leaf disk assay. Conditions: foliar.
In assay [23] the test system is Bemisia tabaci. Kind of assay: Resistant ratio, ratio of LC50 for T17 generation of B-biotype Bemisia tabaci (sweet potato whitefly) to LC50 for B-biotype Bemisia tabaci (sweet potato whitefly).
Assay [24] has as its system Bemisia tabaci. Kind of assay: Resistant ratio, ratio of LC50 for T28 generation of B-biotype Bemisia tabaci (sweet potato whitefly) to LC50 for B-biotype Bemisia tabaci (sweet potato whitefly).

Values after ≈ are worked out from the molar mass of the structure shown.

As a reminder, the LC50 is the concentration that kills 50% of the test population.

On to `CC[C@H](C)[C@H]1O[C@]2(C=C[C@@H]1C)C[C@@H]1C[C@@H](C/C=C(\C)[C@@H](O[C@H]3C[C@H](OC)[C@@H](O[C@H]4C[C@H](OC)[C@@H](O)[C@H](C)O4)[C@H](C)O3)[C@@H](C)/C=C/C=C3\CO[C@@H]4[C@H](O)C(C)=C[C@@H](C(=O)O1)[C@]34O)O2.CO[C@H]1C[C@H](O[C@H]2[C@H](C)O[C@@H](O[C@@H]3/C(C)=C/C[C@@H]4C[C@@H](C[C@]5(C=C[C@H](C)[C@@H](C(C)C)O5)O4)OC(=O)[C@@H]4C=C(C)[C@@H](O)[C@H]5OC/C(=C\C=C\[C@@H]3C)[C@]54O)C[C@@H]2OC)O[C@@H](C)[C@@H]1O` [ABAMECTIN], for which, in the assay on Bemisia tabaci [1], the RatioLC50 is given as 5.33. Besides, the 50% lethal concentration (LC50) with Bemisia tabaci [2] was 0.64 µg/mL; in the assay on Bemisia tabaci [3], 0.12 µg/mL.

On to `C/C(=N\C#N)N(C)Cc1ccc(Cl)nc1` [ACETAMIPRID], for which the RatioLC50 in the assay on Bemisia tabaci [1] turned out to be 35.8. The LC50 in the assay with Bemisia tabaci [2] was 70.9 µg/mL (≈ 318 µM); with Bemisia tabaci [3] it was 1.98 µg/mL (≈ 8.89 µM).

Turning to `CCCCN(CCCC)SN(C)C(=O)Oc1cccc2c1OC(C)(C)C2` [CARBOSULFAN], the RatioLC50 with Bemisia tabaci [1] was found to be 4.43. For the same compound, the LC50 with Bemisia tabaci [2] is 1960 µg/mL (≈ 5140 µM); in the assay on Bemisia tabaci [3] it was 441 µg/mL (≈ 1160 µM).

For the compound `CCOP(=S)(OCC)Oc1nc(Cl)c(Cl)cc1Cl` [CHLORPYRIFOS], the RatioLC50 in the assay on Bemisia tabaci [1] was determined as 1.03. In addition, the LC50 turned out to be 621 µg/mL (≈ 1770 µM) with Bemisia tabaci [2] and 601 µg/mL (≈ 1710 µM) in the assay with Bemisia tabaci [3].

Turning to `CC1(C)[C@H](C(=O)O[C@H](C#N)c2cccc(Oc3ccccc3)c2)[C@@H]1C=C(Br)Br` [DELTAMETHRIN], the RatioLC50 in the assay on Bemisia tabaci [1] is 1.16. In addition, the LC50 in the assay on Bemisia tabaci [2] came to 810 µg/mL (≈ 1600 µM); with Bemisia tabaci [3], 701 µg/mL (≈ 1390 µM).

As to `N#Cc1nn(-c2c(Cl)cc(C(F)(F)F)cc2Cl)c(N)c1[S+]([O-])C(F)(F)F` (stereo not drawn) [FIPRONIL], in the assay with Bemisia tabaci [1], the RatioLC50 is recorded as 1.08. In addition, the LC50 in the assay on Bemisia tabaci [2] stood at 4.45 µg/mL (≈ 10.2 µM); with Bemisia tabaci [3] it was 4.11 µg/mL (≈ 9.4 µM).

For the compound `O=[N+]([O-])/N=C1\NCCN1Cc1ccc(Cl)nc1` [IMIDACLOPRID], the RatioLC50 in the assay on Bemisia tabaci [1] is recorded as 47.3. Also, the LC50 in the assay with Bemisia tabaci [2] amounted to 412 µg/mL (≈ 1610 µM); in the assay on Bemisia tabaci [3], 8.72 µg/mL (≈ 34.1 µM).

On to `CCN(Cc1ccc(Cl)nc1)/C(=C/[N+](=O)[O-])NC` [NITENPYRAM], for which, in the assay with Bemisia tabaci [1], the RatioLC50 came out at 9.99. Moreover, the LC50 worked out at 22.2 µg/mL (≈ 82 µM) in the assay with Bemisia tabaci [2] and 2.22 µg/mL (≈ 8.2 µM) with Bemisia tabaci [3].

In the case of `CN1COCN(Cc2cnc(Cl)s2)/C1=N\[N+](=O)[O-]` [THIAMETHOXAM], the RatioLC50 in the assay on Bemisia tabaci [4] stood at 0.99; in the assay on Bemisia tabaci [5], 2.37; in the assay with Bemisia tabaci [6], 3.14; in the assay with Bemisia tabaci [7], 0.95; in the assay with Bemisia tabaci [8], 1; with Bemisia tabaci [9], 1.17. Besides, the RatioLC50 in the assay with Bemisia tabaci [1] turned out to be 25.6; in the assay with Bemisia tabaci [16] it was 66.3; in the assay on Bemisia tabaci [17], 25.6; in the assay on Bemisia tabaci [23], 9.62; in the assay with Bemisia tabaci [24] it was 19. The LC50 worked out at 452 µg/mL in the assay with Bemisia tabaci [10]; 189 µg/mL with Bemisia tabaci [11]; 143 µg/mL with Bemisia tabaci [12]; 18.5 µg/mL with Bemisia tabaci [13]; 17.6 µg/mL with Bemisia tabaci [14]; 15 µg/mL with Bemisia tabaci [15]. The median lethal concentration (LC50) in the assay on Bemisia tabaci [2] was determined as 450 µg/mL (≈ 1540 µM); in the assay on Bemisia tabaci [3] it was 17.6 µg/mL (≈ 60.3 µM); in the assay on Bemisia tabaci [18], 17.6 µg/mL (≈ 60.3 µM); in the assay on Bemisia tabaci [19], 169 µg/mL (≈ 579 µM); in the assay with Bemisia tabaci [20] it was 334 µg/mL (≈ 1140 µM); in the assay with Bemisia tabaci [21] it was 451 µg/mL (≈ 1550 µM). For the same compound, the LC50 with Bemisia tabaci [22] turned out to be 1160 µg/mL (≈ 3990 µM).

The values above are taken from ChEMBL document CHEMBL3045463, “Cross-resistance study and biochemical mechanisms of thiamethoxam resistance in B-biotype Bemisia tabaci (Hemiptera: Aleyrodidae)” (2010).
